Experimental data taken from patent US20220257621A1, “CANCER CELL PROLIFERATION SUPPRESSION AGENT AND COMPOSITION FOR SUPPRESSING PROLIFERATION OF CANCER CELLS” (SHOWA DENKO K.K., priority 2019, published 2022).

How the values were obtained:
[1] = tested on: ARNT gene; experiment: Suppression of ARNT gene expression induced by atmospheric dust (quantitative real-time PCR); assay type: cell-based, human; conditions: NHEK; sample 0.001% by mass 24 h, then atmospheric dust (NIST 1648a) 500 μg/mL 48 h; standardized to GAPDH; control without dust = 1; dust + water = 1.74
Experimental: The effect of the inositol derivative on suppressing the expression of an ARNT gene in normal human epidermal keratinocytes (NHEK, manufactured by KURABO INDUSTRIES LTD.) was measured under the following conditions. The NHEK cells were seeded in a HuMedia KG2 medium manufactured by KURABO INDUSTRIES LTD. at the seeding density of 10000 cells/cm^2, and cultured for 24 hours under the conditions of 37° C. and 5% CO2. Next, an aqueous solution of the inositol derivative or an aqueous solution of myo-inositol was added to the culture medium so that the final concentration of the inositol derivative or myo-inositol was 0.001% by mass, or water (pure water) was added to the culture medium, and culturing was further performed for 24 hours. […] Using this cDNA as a template, the expression level of the ARNT gene was quantitatively determined by quantitative real-time PCR using a primer specific to the ARNT gene (Perfect Real Time Primer, manufactured by Takara Bio Inc.). As an internal standard gene, the expression level of GAPDH was quantitatively determined (primer used: Perfect Real Time Primer, manufactured by Takara Bio Inc.), and the expression level of the ARNT gene was standardized based on the expression level of GAPDH. […]

[2] = tested on: cell line derived from Lewis lung carcinoma (LLC); experiment: Effect (1) of suppressing proliferation of cancer cells accelerated by atmospheric dust (WST-8); assay type: cell-based; conditions: sample 0.001% by mass 24 h, then atmospheric dust 500 μg/mL 48 h, WST-8 absorbance 450 nm relative to control without dust = 1, dust + water = 2.31
Experimental: The effect of the inositol derivative on suppressing the proliferation of cancer cells in a cell line derived from Lewis lung carcinoma (LLC, JCRB Cell Bank) was measured under the following conditions. The LLC cells were seeded at the seeding density of 50000 cells/cm^2 in a culture medium in which a Ham F 10 medium and an L15 medium (both manufactured by Sigma-Aldrich) were mixed at the ratio of 3:7 (volume ratio), and cultured for 24 hours under the conditions of 37° C. and 5% CO2. Next, an aqueous solution of the inositol derivative or an aqueous solution of myo-inositol was added to the culture medium so that the final concentration of the inositol derivative or myo-inositol was 0.001% by mass, or water (pure water) was added to the culture medium, and culturing was further performed for 24 hours. Thereafter, 0.1 mL of a DMSO solution of atmospheric dust (NIST 1648a) was added per 100 mL of the culture medium so that the final concentration of the atmospheric dust in the culture medium was 500 μg/mL, and culturing was further performed for 48 hours in the same conditions as above. Thereafter, the culture medium was replaced with a medium containing 10% (V/V) of WST-8 of Nacalai Tesque Inc., and after further culturing for 3 hours, the absorbance at the wavelength of 450 nm was measured with a microplate reader i-Control (manufactured by Tecan Group Ltd.). […]

[3] = tested on: cell line derived from Lewis lung carcinoma (LLC); experiment: Effect of suppressing invasion of cancer cells (CytoSelect invasion assay kit); assay type: cell-based; conditions: sample 0.001% by mass 24 h, then atmospheric dust 500 μg/mL 6 h + 18 h, fluorescence relative to control without dust = 1, dust + water = 1.67
Experimental: The effect of the inositol derivative on suppressing the invasion of cancer in a cell line derived from Lewis lung carcinoma (LLC, JCRB Cell Bank) was measured under the following conditions. A CytoSelect invasion assay kit manufactured by Cell Biolabs, Inc. was used for a test. The LLC cells were seeded in a chamber plate for invasion tests attached to the above-mentioned invasion assay kit so that the concentration was 100000 cells/mL using a culture medium in which a Ham F10 medium and an L15 medium (both manufactured by Sigma-Aldrich) were mixed at the ratio of 3:7 (volume ratio), and cultured for 24 hours under the conditions of 37° C. and 5% CO2. Next, an aqueous solution of the inositol derivative or an aqueous solution of myo-inositol was added to the culture medium so that the final concentration of the inositol derivative or myo-inositol was 0.001% by mass, or water (pure water) was added to the culture medium, and culturing was further performed for 24 hours. […] Thereafter, the cells were stained using the above-mentioned invasion assay kit, and the fluorescence intensity at an excitation wavelength of 480 nm/an absorption wavelength of 570 nm was measured with a microplate reader i-Control (manufactured by Tecan Group Ltd.). […]

O[C@H]1[C@H](O)[C@@H](O)[C@H](O)[C@@H](O)[C@H]1O [myo-Inositol, myo-inositol]
Relative gene expression level ARNT [1]: 1.85
Relative cell proliferation amount [2]: 2.03
Relative cell invasion [3]: 1.53
